# Experimental data taken from ChEMBL document CHEMBL4665682, “Fragment Linking Strategies for Structure-Based Drug Design” (J Med Chem, 2020).
# pIC50, pKd, pKi: −log10 of the molar value.
# Experiments:
# Caspase-3 = target: T1, Caspase-3 (Homo sapiens, UniProt P42574); assay: Inhibition of caspase-3 (unknown origin) using Ac-DEVD-AMCA as substrate incubated for 5 mins by Dixon plot analysis
# T1 sequence (P42574 whole entry): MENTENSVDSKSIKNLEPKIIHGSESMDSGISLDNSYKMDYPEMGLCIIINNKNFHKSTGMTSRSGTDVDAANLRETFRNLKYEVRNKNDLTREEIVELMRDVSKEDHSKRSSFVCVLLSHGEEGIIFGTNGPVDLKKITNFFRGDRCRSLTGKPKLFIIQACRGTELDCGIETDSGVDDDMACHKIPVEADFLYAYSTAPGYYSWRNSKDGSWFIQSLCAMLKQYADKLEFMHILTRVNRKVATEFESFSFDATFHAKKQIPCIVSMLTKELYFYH
# [1] = Inhibition of Influenza B virus (B/Victoria/504/2000) Neuraminidase
# Acetylcholinesterase [2] = target: T2, Acetylcholinesterase (Mus musculus, UniProt P21836); assay: Binding affinity to mouse ACHE by fluorescence method
# T2 sequence (P21836 whole entry): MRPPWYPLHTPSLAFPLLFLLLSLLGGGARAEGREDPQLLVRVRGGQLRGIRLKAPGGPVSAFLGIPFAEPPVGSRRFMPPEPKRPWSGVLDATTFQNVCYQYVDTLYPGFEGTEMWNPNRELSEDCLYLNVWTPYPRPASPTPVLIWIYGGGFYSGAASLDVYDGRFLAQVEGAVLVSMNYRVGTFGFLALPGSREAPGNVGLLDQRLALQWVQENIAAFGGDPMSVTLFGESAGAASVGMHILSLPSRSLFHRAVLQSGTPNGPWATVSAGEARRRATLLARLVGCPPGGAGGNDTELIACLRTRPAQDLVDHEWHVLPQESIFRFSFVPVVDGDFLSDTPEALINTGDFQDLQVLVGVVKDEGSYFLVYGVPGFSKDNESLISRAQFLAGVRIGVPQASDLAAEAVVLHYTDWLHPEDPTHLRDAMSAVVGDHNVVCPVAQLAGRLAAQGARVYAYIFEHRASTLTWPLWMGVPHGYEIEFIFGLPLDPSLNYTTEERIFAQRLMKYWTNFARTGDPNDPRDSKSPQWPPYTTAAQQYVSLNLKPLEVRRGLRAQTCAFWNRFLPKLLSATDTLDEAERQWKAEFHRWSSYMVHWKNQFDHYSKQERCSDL
# Acetylcholinesterase [3] = target: T3, Acetylcholinesterase (Rattus norvegicus, UniProt P37136)
# T3 sequence (P37136 whole entry): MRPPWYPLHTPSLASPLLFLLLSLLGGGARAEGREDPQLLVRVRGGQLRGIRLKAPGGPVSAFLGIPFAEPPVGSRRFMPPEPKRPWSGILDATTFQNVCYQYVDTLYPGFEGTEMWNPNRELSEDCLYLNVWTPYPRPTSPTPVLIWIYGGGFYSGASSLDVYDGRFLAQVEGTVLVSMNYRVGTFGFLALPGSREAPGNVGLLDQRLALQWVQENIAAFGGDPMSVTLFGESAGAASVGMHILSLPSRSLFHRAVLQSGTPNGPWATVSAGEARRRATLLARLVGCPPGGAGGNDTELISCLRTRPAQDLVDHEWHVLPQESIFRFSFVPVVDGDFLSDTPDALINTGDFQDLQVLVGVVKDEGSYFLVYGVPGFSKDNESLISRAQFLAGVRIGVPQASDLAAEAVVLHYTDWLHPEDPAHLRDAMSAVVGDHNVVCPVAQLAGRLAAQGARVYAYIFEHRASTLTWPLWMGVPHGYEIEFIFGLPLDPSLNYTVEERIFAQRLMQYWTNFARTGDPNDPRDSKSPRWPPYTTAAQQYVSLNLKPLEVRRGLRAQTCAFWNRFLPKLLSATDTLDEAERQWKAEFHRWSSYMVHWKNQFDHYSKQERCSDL
# Description: Inhibition of rat brain Acetylcholinesterase using acetylthiocholine as substrate in presence of BChE inhibitor ethopropazine
smiles,measurement,setting,value
CN(C)c1ccc(-c2nc3cc(N)ccc3o2)cc1,pKi,Caspase-3,3.92
CCC(CC)N[C@@H]1C=C(C(=O)O)C[C@H](N)[C@H]1NC(C)=O,pKi,[1],7.07
C#CCCCCCC[n+]1c(-c2ccccc2)c2cc(N)ccc2c2ccc(N)cc21,pKd,Acetylcholinesterase [2],2.00
c1ccc2c(NCCCCCCNc3c4c(nc5ccccc35)CCCC4)c3c(nc2c1)CCCC3,pIC50,Acetylcholinesterase [3],9.40
